Test results published in ChEMBL document CHEMBL1148993, “UV-mediated genotoxicity of furanoquinoline and of certain tryptophan-derived alkaloids” (J Nat Prod, 1983).
Counter-ions that a name gives are not always drawn.

Tests used:
[1] = test system: Pseudomonas aeruginosa; test: Phototoxicity against Pseudomonas aeruginosa at 10 ug/disk after irradiation with W/m'2 UV light; assay type: functional; conditions: light or radiation study, read-out: IZ
[2] = test system: CHO; test: Genotoxicity in CHO cells assessed as chromosomal aberrations at 0.02 ppm after 60 mins in dark followed by 5 W/m'2 UV irradiation for 30 mins; assay type: toxicity, cell-based, Cricetulus griseus; conditions: chinese hamster, 0.5 h
[3] = test system: Bacillus subtilis; test: Phototoxicity against Bacillus subtilis at 10 ug/disk in dark; assay type: functional; conditions: light or radiation study, read-out: IZ
[4] = test system: Enterococcus faecalis; test: Phototoxicity against Streptococcus faecalis at 10 ug/disk after irradiation with W/m'2 UV light; assay type: functional; conditions: light or radiation study, read-out: IZ
[5] = test system: Bacillus subtilis; test: Phototoxicity against Bacillus subtilis at 10 ug/disk after irradiation with W/m'2 UV light; assay type: functional; conditions: light or radiation study, read-out: IZ
[6] = test system: Saccharomyces cerevisiae; test: Phototoxicity against Saccharomyces cerevisiae at 10 ug/disk in dark; assay type: functional; conditions: light or radiation study, read-out: IZ
[7] = test system: CHO; test: Genotoxicity in CHO cells assessed as chromosomal aberrations at 0.1 ppm after 60 mins in dark followed by 5 W/m'2 UV irradiation for 30 mins; assay type: toxicity, cell-based, Cricetulus griseus; conditions: chinese hamster, 0.5 h
[8] = test system: CHO; test: Genotoxicity in CHO cells assessed as chromosomal aberrations at 0.3 ppm after 90 mins in dark; assay type: toxicity, cell-based, Cricetulus griseus; conditions: chinese hamster, 1.5 h
[9] = test system: Enterococcus faecalis; test: Phototoxicity against Streptococcus faecalis at 10 ug/disk in dark; assay type: functional; conditions: light or radiation study, read-out: IZ
[10] = test system: Pseudomonas fluorescens; test: Phototoxicity against Pseudomonas fluorescens at 10 ug/disk in dark; assay type: functional; conditions: light or radiation study, read-out: IZ
[11] = test system: Candida albicans; test: Phototoxicity against Candida albicans at 10 ug/disk after irradiation with W/m'2 UV light; assay type: functional; conditions: light or radiation study, read-out: IZ
[12] = test system: Staphylococcus aureus; test: Phototoxicity against Staphylococcus aureus at 10 ug/disk after irradiation with W/m'2 UV light; assay type: functional; conditions: light or radiation study, read-out: IZ
[13] = test system: Saccharomyces cerevisiae; test: Phototoxicity against Saccharomyces cerevisiae at 10 ug/disk after irradiation with W/m'2 UV light; assay type: functional; conditions: light or radiation study, read-out: IZ
[14] = test system: Staphylococcus aureus; test: Phototoxicity against Staphylococcus aureus at 10 ug/disk in dark; assay type: functional; conditions: light or radiation study, read-out: IZ
[15] = test system: CHO; test: Genotoxicity in CHO cells assessed as mitotic inhibition at 0.2 ppm after 60 mins in dark followed by 5 W/m'2 UV irradiation for 30 mins; assay type: toxicity, cell-based, Cricetulus griseus; conditions: chinese hamster, 0.5 h
[16] = test system: Pseudomonas aeruginosa; test: Phototoxicity against Pseudomonas aeruginosa at 10 ug/disk in dark; assay type: functional; conditions: light or radiation study, read-out: IZ
[17] = test system: CHO; test: Genotoxicity in CHO cells assessed as chromosomal aberrations at 0.04 ppm after 60 mins in dark followed by 5 W/m'2 UV irradiation for 30 mins; assay type: toxicity, cell-based, Cricetulus griseus; conditions: chinese hamster, 0.5 h
[18] = test system: Pseudomonas fluorescens; test: Phototoxicity against Pseudomonas fluorescens at 10 ug/disk after irradiation with W/m'2 UV light; assay type: functional; conditions: light or radiation study, read-out: IZ
[19] = test system: Escherichia coli; test: Phototoxicity against Escherichia coli at 10 ug/disk after irradiation with W/m'2 UV light; assay type: functional; conditions: light or radiation study, read-out: IZ
[20] = test system: Candida albicans; test: Phototoxicity against Candida albicans at 10 ug/disk in dark; assay type: functional; conditions: light or radiation study, read-out: IZ
[21] = test system: Escherichia coli; test: Phototoxicity against Escherichia coli at 10 ug/disk in dark; assay type: functional; conditions: light or radiation study, read-out: IZ
[22] = Genotoxicity in CHO cells assessed as mitotic inhibition at 0.62 ppm after 60 mins in dark followed by 5 W/m'2 UV irradiation for 30 mins; assay type: toxicity, cell-based, Cricetulus griseus; conditions: chinese hamster, CHO cells; read-out: Activity
[23] = test system: CHO; test: Genotoxicity in CHO cells assessed as mitotic inhibition at 6.3 ppm after 60 mins in dark followed by 5 W/m'2 UV irradiation for 30 mins; assay type: toxicity, cell-based, Cricetulus griseus; conditions: chinese hamster, 0.5 h
[24] = test system: CHO; test: Genotoxicity in CHO cells assessed as chromosomal aberrations at 100 ppm after 60 mins in dark followed by 5 W/m'2 UV irradiation for 30 mins; assay type: toxicity, cell-based, Cricetulus griseus; conditions: chinese hamster, 0.5 h
[25] = test system: CHO; test: Genotoxicity in CHO cells assessed as chromosomal aberrations at 50 ppm after 60 mins in dark followed by 5 W/m'2 UV irradiation for 30 mins; assay type: toxicity, cell-based, Cricetulus griseus; conditions: chinese hamster
[26] = test system: CHO; test: Genotoxicity in CHO cells assessed as chromosomal aberrations at 25 ppm after 60 mins in dark followed by 5 W/m'2 UV irradiation for 30 mins; assay type: toxicity, cell-based, Cricetulus griseus; conditions: chinese hamster
[27] = test system: CHO; test: Phototoxicity against CHO cells assessed as mitotic inhibition at 12 ppm after UV irradiation; assay type: cell-based, Cricetulus griseus; conditions: chinese hamster
[28] = test system: CHO; test: Genotoxicity in CHO cells assessed as chromosomal aberrations at 100 ppm after 90 mins in dark; assay type: toxicity, cell-based, Cricetulus griseus; conditions: chinese hamster, 1.5 h
[29] = test system: CHO; test: Phototoxicity against CHO cells at 25 ppm; assay type: cell-based, Cricetulus griseus; conditions: chinese hamster
[30] = test system: CHO; test: Genotoxicity in CHO cells assessed as chromosomal aberrations at 12.5 ppm after 60 mins in dark followed by 5 W/m'2 UV irradiation for 30 mins; assay type: toxicity, cell-based, Cricetulus griseus; conditions: chinese hamster, 0.5 h
[31] = test system: CHO; test: Genotoxicity in CHO cells assessed as chromosomal aberrations at 50 ppm after 90 mins in dark; assay type: toxicity, cell-based, Cricetulus griseus; conditions: chinese hamster, 1.5 h
[32] = test system: CHO; test: Genotoxicity in CHO cells assessed as chromosomal aberrations at 0.4 ppm after 60 mins in dark followed by 5 W/m'2 UV irradiation for 30 mins; assay type: toxicity, cell-based, Cricetulus griseus; conditions: chinese hamster, 0.5 h
[33] = test system: CHO; test: Genotoxicity in CHO cells assessed as chromosomal aberrations at 6.2 ppm after 60 mins in dark followed by 5 W/m'2 UV irradiation for 30 mins; assay type: toxicity, cell-based, Cricetulus griseus; conditions: chinese hamster, 0.5 h
[34] = test system: CHO; test: Genotoxicity in CHO cells assessed as chromosomal aberrations at 3.1 ppm after 60 mins in dark followed by 5 W/m'2 UV irradiation for 30 mins; assay type: toxicity, cell-based, Cricetulus griseus; conditions: chinese hamster, 0.5 h
[35] = test system: CHO; test: Genotoxicity in CHO cells assessed as chromosomal aberrations at 0.8 ppm after 60 mins in dark followed by 5 W/m'2 UV irradiation for 30 mins; assay type: toxicity, cell-based, Cricetulus griseus; conditions: chinese hamster, 0.5 h
[36] = test system: Pseudomonas aeruginosa; test: Phototoxicity against Pseudomonas aeruginosa at 100 ug/disk after irradiation with W/m'2 UV light; assay type: functional; conditions: light or radiation study, read-out: IZ
[37] = test system: Staphylococcus aureus; test: Phototoxicity against Staphylococcus aureus at 100 ug/disk in dark; assay type: functional; conditions: light or radiation study, read-out: IZ
[38] = test system: Saccharomyces cerevisiae; test: Phototoxicity against Saccharomyces cerevisiae at 100 ug/disk in dark; assay type: functional; conditions: light or radiation study, read-out: IZ
[39] = test system: Pseudomonas aeruginosa; test: Phototoxicity against Pseudomonas aeruginosa at 100 ug/disk in dark; assay type: functional; conditions: light or radiation study, read-out: IZ
[40] = test system: Pseudomonas fluorescens; test: Phototoxicity against Pseudomonas fluorescens at 100 ug/disk in dark; assay type: functional; conditions: light or radiation study, read-out: IZ
[41] = test system: Staphylococcus aureus; test: Phototoxicity against Staphylococcus aureus at 100 ug/disk after irradiation with W/m'2 UV light; assay type: functional; conditions: light or radiation study, read-out: IZ
[42] = test system: Escherichia coli; test: Phototoxicity against Escherichia coli at 100 ug/disk after irradiation with W/m'2 UV light; assay type: functional; conditions: light or radiation study, read-out: IZ
[43] = test system: Bacillus subtilis; test: Phototoxicity against Bacillus subtilis at 100 ug/disk after irradiation with W/m'2 UV light; assay type: functional; conditions: light or radiation study, read-out: IZ
[44] = test system: Enterococcus faecalis; test: Phototoxicity against Streptococcus faecalis at 100 ug/disk after irradiation with W/m'2 UV light; assay type: functional; conditions: light or radiation study, read-out: IZ
[45] = test system: Pseudomonas fluorescens; test: Phototoxicity against Pseudomonas fluorescens at 100 ug/disk after irradiation with W/m'2 UV light; assay type: functional; conditions: light or radiation study, read-out: IZ
[46] = test system: Saccharomyces cerevisiae; test: Phototoxicity against Saccharomyces cerevisiae at 100 ug/disk after irradiation with W/m'2 UV light; assay type: functional; conditions: light or radiation study, read-out: IZ
[47] = test system: Bacillus subtilis; test: Phototoxicity against Bacillus subtilis at 100 ug/disk in dark; assay type: functional; conditions: light or radiation study, read-out: IZ
[48] = test system: Candida albicans; test: Phototoxicity against Candida albicans at 100 ug/disk after irradiation with W/m'2 UV light; assay type: functional; conditions: light or radiation study, read-out: IZ
[49] = test system: Candida albicans; test: Phototoxicity against Candida albicans at 100 ug/disk in dark; assay type: functional; conditions: light or radiation study, read-out: IZ
[50] = test system: Escherichia coli; test: Phototoxicity against Escherichia coli at 100 ug/disk in dark; assay type: functional; conditions: light or radiation study, read-out: IZ
[51] = test system: Enterococcus faecalis; test: Phototoxicity against Streptococcus faecalis at 100 ug/disk in dark; assay type: functional; conditions: light or radiation study, read-out: IZ
[52] = test system: CHO; test: Genotoxicity against CHO cells; assay type: toxicity, cell-based, Cricetulus griseus; conditions: chinese hamster
[53] = test system: CHO; test: Genotoxicity against CHO cells after UV irradiation; assay type: toxicity, cell-based, Cricetulus griseus; conditions: chinese hamster

Compound: COc1c2occc2cc2ccc(=O)oc12 [METHOXSALEN]
- zone of inhibition at 10 µg/disc [1]: 0 mm
- Activity [2]: 7.1%
- zone of inhibition at 10 µg/disc [3]: 0 mm
- zone of inhibition at 10 µg/disc [4]: 14 mm
- zone of inhibition at 10 µg/disc [5]: 14 mm
- zone of inhibition at 10 µg/disc [6]: 0 mm
- Activity [7]: 63.6%
- Activity [8]: 0%
- zone of inhibition at 10 µg/disc [9]: 0 mm
- zone of inhibition at 10 µg/disc [10]: 0 mm
- zone of inhibition at 10 µg/disc [11]: 14 mm
- zone of inhibition at 10 µg/disc [12]: 18 mm
- zone of inhibition at 10 µg/disc [13]: 19 mm
- zone of inhibition at 10 µg/disc [14]: 0 mm
- Activity [15]: Active
- zone of inhibition at 10 µg/disc [16]: 0 mm
- Activity [17]: 38.8%
- zone of inhibition at 10 µg/disc [18]: 0 mm
- zone of inhibition at 10 µg/disc [19]: 14 mm
- zone of inhibition at 10 µg/disc [20]: 0 mm
- zone of inhibition at 10 µg/disc [21]: 0 mm

Compound: c1ccc2c(c1)[nH]c1cnccc12 [NORHARMANE]
- inhibition at 0.5 h, 0.62 ppm [22]: 0%

Compound: C=C[C@H]1C[N@@]2CC[C@H]1C[C@H]2[C@H](O)c1ccnc2ccc(OC)cc12 [QUININE]
- Activity [23]: Active
- Activity [24]: Toxic
- Activity [25]: Toxic
- Activity [26]: Toxic
- Activity [27]: Active
- Activity [28]: 0%
- Activity [29]: Active
- Activity [30]: Toxic

Compound: COc1ccc2c(OC)c3ccoc3nc2c1OC [SKIMMIANINE]
- Activity [25]: Toxic
- Activity [31]: 0%
- Activity [32]: 3%
- Activity [33]: 59.9%
- Activity [26]: 50%
- Activity [34]: 45%
- Activity [35]: 10.9%
- Activity [30]: 61.9%

Compound: O=C1C[C@@H]2OCC=C3CN4CC[C@]56c7ccccc7N1[C@H]5[C@H]2[C@H]3C[C@H]46 [STRYCHNINE SULFATE]
- zone of inhibition at 100 µg/disc [36]: 0 mm
- zone of inhibition at 100 µg/disc [37]: 0 mm
- zone of inhibition at 100 µg/disc [38]: 0 mm
- zone of inhibition at 100 µg/disc [39]: 0 mm
- zone of inhibition at 100 µg/disc [40]: 0 mm
- zone of inhibition at 100 µg/disc [41]: 0 mm
- zone of inhibition at 100 µg/disc [42]: 0 mm
- zone of inhibition at 100 µg/disc [43]: 0 mm
- zone of inhibition at 100 µg/disc [44]: 0 mm
- zone of inhibition at 100 µg/disc [45]: 0 mm
- zone of inhibition at 100 µg/disc [46]: 0 mm
- zone of inhibition at 100 µg/disc [47]: 0 mm
- zone of inhibition at 100 µg/disc [48]: 0 mm
- zone of inhibition at 100 µg/disc [49]: 0 mm
- zone of inhibition at 100 µg/disc [50]: 0 mm
- zone of inhibition at 100 µg/disc [51]: 0 mm

Compound: O=C1C[C@@H]2OCC=C3CN4CC[C@]56c7ccccc7N1[C@H]5[C@H]2[C@H]3C[C@H]46 [STRYCHNINE]
- Activity [52]: Not Active
- Activity [53]: Not Active

Compound: CC[C@]1(O)C[C@@H]2CN(CCc3c([nH]c4ccccc34)[C@@](C(=O)OC)(c3cc4c(cc3OC)N(C)[C@H]3[C@@](O)(C(=O)OC)[C@H](OC(C)=O)[C@]5(CC)C=CCN6CC[C@]43[C@@H]65)C2)C1 [VINBLASTINE]
- Activity [52]: Not Active
- Activity [53]: Not Active
